Results reported in patent US6737383B1, “Herbicidal oxadiazolidines” (priority 1999, dated 2004).
Values belong to the molecule of their own block, whether it stands above or below them.

Experiments:
[1] = test system: Abutilon theophrasti (ABUTH); assay: Test F preemergence, alone and in mixture with rimsulfuron, ABUTH; type: in vivo; conditions: 21 days after treatment, 0-100 scale
Description: (§1) Abutilon theophrasti (ABUTH), Chenopodium album (CHEAL), Amaranthus rudis (AMATA), Setaria faberii (SETFA), Panicum dichotomiflorum (PANDI), and Digitaria sanguinalis (DIGSA) were grown from seed in pots of an artificial potting mixture in a greenhouse. Compounds of the present invention were applied at 70 and 105 g ai/ha preemergence. Rimsulfuron was applied at 8.8 and 17.5 g ai/ha. Mixtures of the compounds of the present invention and rimsulfuron were also applied.
(§2) Following application, the plants were maintained by watering as needed. A fertilizer solution of Peter's 20-20-20 (10 pounds/5 gallons of water) plus Sprint 330, a Iron Chelate micronutrient, (113.5 grams/5 gallons of water) was injected into the water with an Anderson fertilizer injection system to provide approximately 219 ppm of nitrogen with each watering. Artificial lighting was used to supplement natural light to produce a 14 hour photoperiod and: an additional one hour light period was used between 1:00 am to 2:00 am for a night interruption. Greenhouse temperatures were targeted for 27° C. in the day and 21° C. at night. At 21 days after treatment, all plants were evaluated for injury as compared to control plants that were sprayed only with non-phytotoxic solvent.
(§3) Colby's equation was used to calculate the expected additive herbicidal effect of the mixtures of Compound 21 and the mixture partners listed above. […]

[2] = test system: Chenopodium album (CHEAL); assay: Test F preemergence, alone and in mixture with rimsulfuron, CHEAL; type: in vivo; conditions: 21 days after treatment, 0-100 scale
Summary of the method: (§4)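 Greenhouse pot plants treated preemergence with compound at 70 and 105 g ai/ha, rimsulfuron at 8.8 and 17.5 g ai/ha, or mixtures; 27° C day/21° C night, 14 hour photoperiod. Injury scored at 21 days after treatment against solvent-sprayed controls; expected additive effect of mixtures calculated by Colby's equation.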

Amaranthus rudis (AMATA) = assay: Test F preemergence, alone and in mixture with rimsulfuron, AMATA; type: in vivo; conditions: 21 days after treatment, 0-100 scale
Summary of the method: as §4

Setaria faberii (SETFA) = assay: Test F preemergence, alone and in mixture with rimsulfuron, SETFA; type: in vivo; conditions: 21 days after treatment, 0-100 scale
Description: as §1, §2, §3

[3] = test system: Panicum dichotomiflorum (PANDI); assay: Test F preemergence, alone and in mixture with rimsulfuron, PANDI; type: in vivo; conditions: 21 days after treatment, 0-100 scale
Description: as §1, §2, §3

[4] = test system: Digitaria sanguinalis (DIGSA); assay: Test F preemergence, alone and in mixture with rimsulfuron, DIGSA; type: in vivo; conditions: 21 days after treatment, 0-100 scale
Summary of the method: as §4

certain weeds = assay: Test F overall statement on synergism with rimsulfuron (Colby's equation); type: in vivo; conditions: combinations with rimsulfuron, preemergence
Description: as §2, with “Abutilon theophrasti (ABUTH), Chenopodium album (CHEAL), Amaranthus rudis (AMATA), Setaria […]), Panicum dichotomiflorum (PANDI), and Digitaria sanguinalis (DIGSA) were grown from seed in pots of an artificial potting mixture in a greenhouse. Compounds of the present invention were applied at 70 and 105 g ai/ha preemergence. Rimsulfuron was applied at 8.8 and 17.5 g ai/ha. Mixtures of the compounds of the present invention and rimsulfuron were also applied. Following” for “Following”, “solvent. […] Colby's equation was used to calculate the expected additive herbicidal effect of the mixtures of Compound 21 and the mixture partners listed above. […]” for “solvent.”

barnyardgrass = assay: Test A barnyardgrass; type: in vivo, Echinochloa crus-galli; conditions: 0 to 10 scale where 0 is no effect and 10 is complete control
Summary of the method: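 Injury scored visually after about eleven greenhouse days against untreated plants, 0 = no effect, 10 = complete control. Compounds, formulated in surfactant-containing non-phytotoxic solvent, were applied as preemergence soil drench to sandy loam plantings and as postemergence runoff spray at the 1–2 leaf stage.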

crabgrass = assay: Test A crabgrass; type: in vivo, Digitaria spp.; conditions: 0 to 10 scale where 0 is no effect and 10 is complete control
Description: (§5) Seeds of barnyardgrass (Echinochloa crus-galli), crabgrass (Digitaria spp.), morningglory (Ipomoea spp.), and velvetleaf (Abutilon theophrasti) were planted into a sandy loam soil and treated preemergence by soil drench with test chemicals formulated in a non-phytotoxic solvent mixture which includes a surfactant At the same time, these crop and weed species were also treated postemergence sprayed to runoff, with test chemicals formulated in the same manner.
(§6) Plants ranged in height from two to eighteen cm and were in the one to two leaf stage for the postemergence treatment. Treated plants and untreated controls were maintained in a greenhouse for approximately eleven days, after which all treated plants were compared to untreated controls and visually evaluated for injury. Plant response ratings, summarized in Table A, are based on a 0 to 10 scale where 0 is no effect and 10 is complete control.

morningglory = assay: Test A morningglory; type: in vivo, Ipomoea spp.; conditions: 0 to 10 scale where 0 is no effect and 10 is complete control
Description: as §5, §6

velvetleaf = assay: Test A velvetleaf; type: in vivo, Abutilon theophrasti; conditions: 0 to 10 scale where 0 is no effect and 10 is complete control
Description: as §5, §6

[5] = Alone: Cmpd. rate 70, Rimsulfuron 0
[6] = Alone: Cmpd. rate 105, Rimsulfuron 0

melting point: 57 to 60 °C
SMILES: CC(C)N(C(=O)n1oc(=O)n(-c2ccc(Cl)cc2Cl)c1=O)c1ccc(F)cc1 [Compound 7, 4-(2,4-Dichlorophenyl)-N-(4-fluorophenyl)-N-(1-methylethyl)-3,5-dioxo-1,2,4-oxadiazolidine-2-carboxamide]

SMILES: CC(C)N(C(=O)n1oc(=O)n(C2CC2)c1=O)c1ccc(F)cc1 [Compound 242]
ABUTH Observed [1, 5]: 50%
ABUTH Observed [1, 6]: 70%
CHEAL Observed [2, 5]: 30%
CHEAL Observed [2, 6]: 100%
AMATA Observed (Amaranthus rudis (AMATA); [5]): 20%
AMATA Observed (Amaranthus rudis (AMATA); [6]): 55%
SETFA Observed (Setaria faberii (SETFA); [5]): 60%
SETFA Observed (Setaria faberii (SETFA); [6]): 75%
PANDI Observed [3, 5]: 60%
PANDI Observed [3, 6]: 80%
DIGSA Observed [4, 5]: 100%
DIGSA Observed [4, 6]: 100%
Weed control of combination with rimsulfuron compared with expectation from Colby's equation (certain weeds): better control of certain weeds than expected

SMILES: CCN(CC)C(=O)n1oc(=O)n(-c2c(C)cccc2C)c1=O [Compound 2]
Plant response rating, Barnyardgrass (barnyardgrass; Postemergence, Rate 1000 g/ha): 8
Plant response rating, Barnyardgrass (barnyardgrass; Pre-emergence, Rate 2000 g/ha): 9
Plant response rating, Crabgrass (crabgrass; Postemergence, Rate 1000 g/ha): 0
Plant response rating, Crabgrass (crabgrass; Pre-emergence, Rate 2000 g/ha): 2
Plant response rating, Morningglory (morningglory; Postemergence, Rate 1000 g/ha): 0
Plant response rating, Morningglory (morningglory; Pre-emergence, Rate 2000 g/ha): 0
Plant response rating, Velvetleaf (velvetleaf; Postemergence, Rate 1000 g/ha): 0
Plant response rating, Velvetleaf (velvetleaf; Pre-emergence, Rate 2000 g/ha): 0
